Reference: patent publication US9550768B2, “Kinase modulation and indications therefor” (PLEXXIKON INC., priority 2011, dated 2017)

What was measured:
[1] = biological target: T1, FLT3 (Homo sapiens, UniProt P36888); test: Flt3 biochemical assay (AlphaScreen, recombinant enzyme); settings: recombinant FLT3, ATP 100 μM, room temperature, 60 minutes
T1 construct: purchased Invitrogen PV3182
T1 sequence (P36888 564-993 limits assumed): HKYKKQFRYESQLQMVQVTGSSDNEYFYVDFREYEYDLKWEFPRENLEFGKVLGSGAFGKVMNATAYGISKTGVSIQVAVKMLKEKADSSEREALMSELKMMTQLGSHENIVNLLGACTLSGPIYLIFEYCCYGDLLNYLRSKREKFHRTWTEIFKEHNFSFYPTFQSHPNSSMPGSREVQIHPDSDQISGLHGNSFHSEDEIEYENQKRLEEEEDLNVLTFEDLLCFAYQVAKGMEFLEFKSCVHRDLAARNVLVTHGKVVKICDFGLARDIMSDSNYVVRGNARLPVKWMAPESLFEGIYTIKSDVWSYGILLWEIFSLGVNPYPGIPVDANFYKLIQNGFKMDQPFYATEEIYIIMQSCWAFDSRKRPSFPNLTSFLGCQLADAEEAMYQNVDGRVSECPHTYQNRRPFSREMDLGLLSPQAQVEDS

[2] = test system: leukemia cell that express either wild type FLT3 or FLT3-ITD mutations; settings: cited from earlier work

IC50 [1] [nM] | Structure (SMILES) | growth of leukemia cells [2]
< 100 | N#Cc1cnc2[nH]cc(Cc3ccc(NCc4ccc(C(F)(F)F)nc4)nc3Cl)c2c1 [Compound P-0232, 3-{2-Chloro-6-[(6-trifluoromethyl-pyridin-3-ylmethyl)-amino]-pyridin-3-ylmethyl}-1H-pyrrolo[2,3-b]pyridine-5-carbonitrile] | 
< 100 | COc1ccc(CNc2ccc(Cc3c[nH]c4ncc(C)cc34)cn2)cn1 [Compound P-0282, (6-Methoxy-pyridin-3-ylmethyl)-[5-(5-methyl-1H-pyrrolo[2,3-b]pyridin-3-ylmethyl)-pyridin-2-yl]-amine] | 
< 100 | COc1ccc(CNc2ccc(Cc3c[nH]c4ncccc34)cn2)c(OC)n1 [Compound P-0370, (2,6-Dimethoxy-pyridin-3-ylmethyl)-[5-(1H-pyrrolo[2,3-b]pyridin-3-ylmethyl)-pyridin-2-yl]-amine] | 
< 100 | Fc1cccc(CNc2ncc(Cc3c[nH]c4ncc(Cl)cc34)cn2)c1 [Compound P-0442, [5-(5-Chloro-1H-pyrrolo[2,3-b]pyridin-3-ylmethyl)-pyrimidin-2-yl]-(3-fluoro-benzyl)-amine] | 
< 100 | N#Cc1cnc2[nH]cc(Cc3ccc(NCc4ccc(Cl)cc4)nc3F)c2c1 [Compound P-0432, 3-[6-(4-Chloro-benzylamino)-2-fluoro-pyridin-3-ylmethyl]-1H-pyrrolo[2,3-b]pyridine-5-carbonitrile] | 
< 1000 | CNc1ncccc1CNc1ccc(Cc2c[nH]c3ncccc23)cn1 [Compound P-0385, Methyl-(3-{[5-(1H-pyrrolo[2,3-b]pyridin-3-ylmethyl)-pyridin-2-ylamino]-methyl}-pyridin-2-yl)-amine] | 
< 1000 | CCc1ccccc1CNc1ccc(Cc2c[nH]c3ncccc23)cn1 [Compound P-0383, (2-Ethyl-benzyl)-[5-(1H-pyrrolo[2,3-b]pyridin-3-ylmethyl)-pyridin-2-yl]-amine] | 
< 1000 | COc1ccccc1CNc1ncc(Cc2c[nH]c3ncc(Cl)cc23)cn1 [Compound P-0433, [5-(5-Chloro-1H-pyrrolo[2,3-b]pyridin-3-ylmethyl)-pyrimidin-2-yl]-(2-methoxy-benzyl)-amine] | 
< 100 | CN(C)c1ncccc1CNc1ccc(Cc2c[nH]c3ncccc23)cn1 [Compound P-0399, Dimethyl-(3-{[5-(1H-pyrrolo[2,3-b]pyridin-3-ylmethyl)-pyridin-2-ylamino]-methyl}-pyridin-2-yl)-amine] | 
< 1000 | COc1ccc(CNc2ccc(Cc3c[nH]c4ncc(C#N)cc34)cn2)cn1 [Compound P-0284, 3-{6-[(6-Methoxy-pyridin-3-ylmethyl)-amino]-pyridin-3-ylmethyl}-1H-pyrrolo[2,3-b]pyridine-5-carbonitrile] | 
< 100 | FC(F)(F)c1ccc(CNc2ncc(Cc3c[nH]c4ncc(Cl)cc34)cn2)cn1 [Compound P-0429, [5-(5-Chloro-1H-pyrrolo[2,3-b]pyridin-3-ylmethyl)-pyrimidin-2-yl]-(6-trifluoromethyl-pyridin-3-ylmethyl)-amine] | 
< 1000 | CC(Nc1ncc(Cc2c[nH]c3ncc(Cl)cc23)cn1)c1ccc(Cl)cc1 (stereo not shown) [Compound P-0427, [1-(4-Chloro-phenyl)-ethyl]-[5-(5-chloro-1H-pyrrolo[2,3-b]pyridin-3-ylmethyl)-pyrimidin-2-yl]-amine] | 
< 100 | Fc1ccc(CNc2nc(Cl)c(Cc3c[nH]c4ncc(Cl)cc34)s2)cc1 [Compound P-0195, [4-Chloro-5-(5-chloro-1H-pyrrolo[2,3-b]pyridin-3-ylmethyl)-thiazol-2-yl]-(4-fluoro-benzyl)-amine] | 
< 10000 | Fc1ccc(C(F)(F)F)c(CNc2ncc(Cc3c[nH]c4ncc(Cl)cc34)cn2)c1 [Compound P-0391, [5-(5-Chloro-1H-pyrrolo[2,3-b]pyridin-3-ylmethyl)-pyrimidin-2-yl]-(5-fluoro-2-trifluoromethyl-benzyl)-amine] | 

Continued, molecule first:

Structure (SMILES) | IC50 [1] [nM] | growth of leukemia cells [2]
Fc1ccc(Cl)c(CNc2ncc(Cc3c[nH]c4ncc(Cl)cc34)cn2)c1 [Compound P-0408, (2-Chloro-5-fluoro-benzyl)-[5-(5-chloro-1H-pyrrolo[2,3-b]pyridin-3-ylmethyl)-pyrimidin-2-yl]-amine] | < 1000 | 
COc1cnc2[nH]cc(Cc3ccc(NCc4cc(F)ccc4F)nc3)c2c1 [Compound P-0330, (2,5-Difluoro-benzyl)-[5-(5-methoxy-1H-pyrrolo[2,3-b]pyridin-3-ylmethyl)-pyridin-2-yl]-amine] | < 1000 | 
Clc1ccc(Cl)c(CNc2ccc(Cc3c[nH]c4ncccc34)cn2)c1 [Compound P-0380, (2,5-Dichloro-benzyl)-[5-(1H-pyrrolo[2,3-b]pyridin-3-ylmethyl)-pyridin-2-yl]-amine] | < 1000 | 
C=CCNC1=C2C[C@@H](C)C[C@H](OC)[C@H](O)[C@@H](C)/C=C(\C)[C@H](OC(N)=O)[C@@H](OC)/C=C\C=C(/C)C(=O)NC(=CC1=O)C2=O [Compound 17AAG] |  | inhibited
COc1cnc2[nH]cc(Cc3ccc(NCc4ccc(C(F)(F)F)nc4)nc3F)c2c1 [Compound P-0187, [6-Fluoro-5-(5-methoxy-1H-pyrrolo[2,3-b]pyridin-3-ylmethyl)-pyridin-2-yl]-(6-trifluoromethyl-pyridin-3-ylmethyl)-amine] | < 10 | 
N#Cc1cnc2[nH]cc(Cc3ccc(NCc4cncc(F)c4)nc3F)c2c1 [Compound P-0415, 3-{2-Fluoro-6-[(5-fluoro-pyridin-3-ylmethyl)-amino]-pyridin-3-ylmethyl}-1H-pyrrolo[2,3-b]pyridine-5-carbonitrile] | < 1000 | 
CN(C)c1ccccc1CNc1ncc(Cc2c[nH]c3ncc(Cl)cc23)cn1 [Compound P-0449, [5-(5-Chloro-1H-pyrrolo[2,3-b]pyridin-3-ylmethyl)-pyrimidin-2-yl]-(2-dimethylamino-benzyl)-amine] | < 10 | 
COc1cnc2[nH]cc(Cc3ccc(NCc4ccc(OC)nc4)nc3)c2c1 [Compound P-0332, (6-Methoxy-pyridin-3-ylmethyl)-[5-(5-methoxy-1H-pyrrolo[2,3-b]pyridin-3-ylmethyl)-pyridin-2-yl]-amine] | < 100 | 
Fc1cnc2[nH]cc(Cc3ccc(NCc4c(F)cccc4F)nc3)c2c1 [Compound P-0333, (2,6-Difluoro-benzyl)-[5-(5-fluoro-1H-pyrrolo[2,3-b]pyridin-3-ylmethyl)-pyridin-2-yl]-amine] | < 10000 | 
Fc1cncc(CNc2ccc(Cc3c[nH]c4ncc(Cl)cc34)cn2)c1 [Compound P-0324, [5-(5-Chloro-1H-pyrrolo[2,3-b]pyridin-3-ylmethyl)-pyridin-2-yl]-(5-fluoro-pyridin-3-ylmethyl)-amine] | < 1000 | 
Cc1cc(F)ccc1CNc1ccc(Cc2c[nH]c3ncccc23)cn1 [Compound P-0372, (4-Fluoro-2-methyl-benzyl)-[5-(1H-pyrrolo[2,3-b]pyridin-3-ylmethyl)-pyridin-2-yl]-amine] | < 100 | 
COc1ccc(CNc2ccc(Cc3c[nH]c4ncc(Cl)cc34)cn2)cn1 [Compound P-0283, [5-(5-Chloro-1H-pyrrolo[2,3-b]pyridin-3-ylmethyl)-pyridin-2-yl]-(6-methoxy-pyridin-3-ylmethyl)-amine] | < 100 | 
C[C@H](Nc1ncc(Cc2c[nH]c3ncc(Cl)cc23)cn1)c1ccc(F)cc1 [Compound P-0428, [5-(5-Chloro-1H-pyrrolo[2,3-b]pyridin-3-ylmethyl)-pyrimidin-2-yl]-[(S)-1-(4-fluoro-phenyl)-ethyl]-amine] | < 1000 | 
COc1cnc2[nH]cc(Cc3ccc(NCc4ccccc4C(F)(F)F)nc3)c2c1 [Compound P-0326, [5-(5-Methoxy-1H-pyrrolo[2,3-b]pyridin-3-ylmethyl)-pyridin-2-yl]-(2-trifluoromethyl-benzyl)-amine] | < 100 | 
